Assay results taken from US10294202B2, “Pyrrolidinones as herbicides” (FMC Corporation, priority 2013, dated 2019).

Columns and labels:
[1] = tested on: pigweed; test: Test A pre-/postemergence herbicide test; format: in vivo, Amaranthus retroflexus; conditions: for Pigweed plant response rating: Preemergence, visual rating on 0 to 100 scale (0 no effect, 100 complete control)
Method in brief: (§1)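 Planted in loam–sand blend; treated the same day preemergence by directed soil spray, while separately grown plants at one- to two-leaf stage got postemergence spray. Compared visually with untreated controls after approximately 10 days; 100 means complete control.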

[2] = tested on: rice; test: Test B flooded paddy test; format: in vivo, Oryza sativa; conditions: 250 g ai/ha, Flood; scale of 0 to 100 where 0 is no effect and 100 is complete control
Method in brief: (§2)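 In-water application to pots flooded 3 cm deep, plants at 2-leaf stage. Held in greenhouse 13–15 days at constant flood depth. Scored 0–100 by eye against controls.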

[3] = tested on: lambsquarters; test: Test C pre-/postemergence herbicide test; format: in vivo, Chenopodium album
Method in brief: (§3)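 Test compounds, formulated in a surfactant-containing non-phytotoxic solvent blend, are applied to seeded loam/sand soil (preemergence) and to young plants at the 1- to 4-leaf stage in peat-based medium (postemergence). Plants stay 13 to 15 days under greenhouse conditions, then are scored visually relative to controls, 0 = no effect, 100 = complete control.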

[4] = tested on: corn; test: Test A pre-/postemergence herbicide test; format: in vivo, Zea mays; conditions: for Corn plant response rating: Preemergence, visual rating on 0 to 100 scale (0 no effect, 100 complete control)
Method in brief: as §1

[5] = tested on: nutsedge, yellow; test: Test C pre-/postemergence herbicide test; format: in vivo, Cyperus esculentus
Method in brief: as §3

[6] = tested on: morningglory; test: Test C pre-/postemergence herbicide test; format: in vivo, Ipomoea coccinea
Method in brief: as §3

[7] = tested on: corn; test: Test C pre-/postemergence herbicide test; format: in vivo, Zea mays
Method in brief: as §3

[8] = tested on: ducksalad; test: Test B flooded paddy test; format: in vivo, Heteranthera limosa; conditions: 250 g ai/ha, Flood; scale of 0 to 100 where 0 is no effect and 100 is complete control
Method in brief: as §2

[9] = tested on: wheat; test: Test A pre-/postemergence herbicide test; format: in vivo, Triticum aestivum; conditions: for Wheat plant response rating: Preemergence, visual rating on 0 to 100 scale (0 no effect, 100 complete control)
Method in brief: as §1

[10] = tested on: johnsongrass; test: Test C pre-/postemergence herbicide test; format: in vivo, Sorghum halepense
Method in brief: as §3

[11] = tested on: ryegrass, Italian; test: Test C pre-/postemergence herbicide test; format: in vivo, Lolium multiflorum
Method in brief: as §3

[12] = tested on: ragweed; test: Test C pre-/postemergence herbicide test; format: in vivo, Ambrosia elatior
Method in brief: as §3

[13] = Postemergence, 125 g ai/ha, 0 to 100 scale, 0 no effect, 100 complete control
[14] = Postemergence, 500 g ai/ha, 0 to 100 scale (0 no effect, 100 complete control)
[15] = preemergence, 500 g ai/ha, 0 to 100 scale
[16] = Postemergence, 31 g ai/ha, scale 0 (no effect) to 100 (complete control)
[17] = Postemergence, 125 g ai/ha, scale 0 to 100 (0 no effect, 100 complete control)
[18] = Preemergence, 62 g ai/ha, scale 0 to 100
[19] = Preemergence, 125 g ai/ha, scale 0 to 100 (0 no effect, 100 complete control)
[20] = Preemergence, 16 g ai/ha, scale 0 to 100
[21] = Postemergence, 16 g ai/ha, scale 0 to 100 (0 no effect, 100 complete control)
[22] = Postemergence, 62 g ai/ha, scale 0 to 100 (0 no effect, 100 complete control)
[23] = Postemergence, 250 g ai/ha, scale 0 to 100 (0 no effect, 100 complete control)

O=C1NCC(c2cc(F)c(F)c(F)c2)C1C(=O)Nc1cccc(F)c1F (centres unmarked) [Compound 48]
40: Plant response rating, Wheat [9, 14]
5: Plant response rating, Corn [7, 16] | Plant response rating, Corn [7, 22] | Plant response rating, Corn [7, 17] | Plant response rating, Ragweed [12, 16] | Plant response rating, Ragweed [12, 22]
20: Plant response rating, Rice [2] | Plant response rating, Corn [4, 15] | Plant response rating, Nutsedge, Yellow [5, 19] | Plant response rating, Corn [7, 18] | Plant response rating, Corn [7, 19] | Plant response rating, Wheat [9, 13] | Plant response rating, Johnsongrass [10, 19]
10: Plant response rating, Lambsquarters [3, 16] | Plant response rating, Lambsquarters [3, 17] | Plant response rating, Morningglory [6, 21] | Plant response rating, Morningglory [6, 16] | Plant response rating, Morningglory [6, 22] | Plant response rating, Morningglory [6, 17] | Plant response rating, Johnsongrass [10, 18] | Plant response rating, Ragweed [12, 18] | Plant response rating, Ragweed [12, 19]
65: Plant response rating, Lambsquarters [3, 18] | Plant response rating, Lambsquarters [3, 19]
50: Plant response rating, Corn [4, 14] | Plant response rating, Wheat [9, 15]
15: Plant response rating, Morningglory [6, 19]
35: Plant response rating, Ragweed [12, 17]
0: Plant response rating, Pigweed [1, 13] | Plant response rating, Pigweed [1, 14] | Pigweed plant response rating ([1]; 125 g ai/ha) | Plant response rating, Pigweed [1, 15] | Plant response rating, Lambsquarters [3, 20] | Plant response rating, Corn [4, 13] | Corn plant response rating ([4]; 125 g ai/ha) | Plant response rating, Nutsedge, Yellow [5, 21] | Plant response rating, Nutsedge, Yellow [5, 16] | Plant response rating, Nutsedge, Yellow [5, 22] | Plant response rating, Nutsedge, Yellow [5, 17] | Plant response rating, Nutsedge, Yellow [5, 18] | Plant response rating, Nutsedge, Yellow [5, 20] | Plant response rating, Morningglory [6, 18] | Plant response rating, Morningglory [6, 20] | Plant response rating, Corn [7, 21] | Plant response rating, Corn [7, 20] | Corn plant response rating ([7]; Preemergence, 31 g ai/ha, scale 0 to 100 (0 no effect, 100 complete control)) | Wheat plant response rating ([9]; 125 g ai/ha) | Plant response rating, Johnsongrass [10, 21] | Plant response rating, Johnsongrass [10, 16] | Plant response rating, Johnsongrass [10, 22] | Plant response rating, Johnsongrass [10, 17] | Plant response rating, Johnsongrass [10, 20] | Plant response rating, Ryegrass, Italian [11, 21] | Plant response rating, Ryegrass, Italian [11, 16] | Plant response rating, Ryegrass, Italian [11, 22] | Plant response rating, Ryegrass, Italian [11, 17] | Plant response rating, Ryegrass, Italian [11, 18] | Plant response rating, Ryegrass, Italian [11, 19] | Plant response rating, Ryegrass, Italian [11, 20] | Plant response rating, Ragweed [12, 21] | Plant response rating, Ragweed [12, 20]
100: Plant response rating, Ducksalad [8]

O=C1NCC(c2cc(F)c(F)cc2F)C1C(=O)Nc1cccc(F)c1F (centres unmarked) [Compound 50]
5: Plant response rating, Lambsquarters [3, 16] | Plant response rating, Nutsedge, Yellow [5, 23] | Plant response rating, Corn [7, 17] | Plant response rating, Corn [7, 23]
0: Plant response rating, Pigweed [1, 13] | Plant response rating, Pigweed [1, 14] | Pigweed plant response rating ([1]; 125 g ai/ha) | Plant response rating, Pigweed [1, 15] | Plant response rating, Rice [2] | Plant response rating, Corn [4, 13] | Plant response rating, Corn [4, 14] | Corn plant response rating ([4]; 125 g ai/ha) | Plant response rating, Corn [4, 15] | Plant response rating, Nutsedge, Yellow [5, 16] | Plant response rating, Nutsedge, Yellow [5, 22] | Plant response rating, Nutsedge, Yellow [5, 17] | Plant response rating, Morningglory [6, 16] | Plant response rating, Morningglory [6, 22] | Plant response rating, Corn [7, 16] | Plant response rating, Corn [7, 22] | Plant response rating, Wheat [9, 13] | Plant response rating, Wheat [9, 14] | Wheat plant response rating ([9]; 125 g ai/ha) | Plant response rating, Wheat [9, 15] | Plant response rating, Johnsongrass [10, 16] | Plant response rating, Johnsongrass [10, 22] | Plant response rating, Johnsongrass [10, 17] | Plant response rating, Ryegrass, Italian [11, 16] | Plant response rating, Ryegrass, Italian [11, 22] | Plant response rating, Ryegrass, Italian [11, 17] | Plant response rating, Ryegrass, Italian [11, 23] | Plant response rating, Ragweed [12, 16] | Plant response rating, Ragweed [12, 22] | Plant response rating, Ragweed [12, 17]
15: Plant response rating, Lambsquarters [3, 23]
10: Plant response rating, Lambsquarters [3, 22] | Plant response rating, Lambsquarters [3, 17] | Plant response rating, Morningglory [6, 17] | Plant response rating, Morningglory [6, 23] | Plant response rating, Johnsongrass [10, 23] | Plant response rating, Ragweed [12, 23]
90: Plant response rating, Ducksalad [8]
